Results published in patent publication US4876245A, “Fluorine-containing macrolide compounds and their use” (Daikin Industries Ltd., priority 1986, dated 1989).
In brackets after ≈: the same amount, converted by molar mass.

Experiments:
Format in all cases: cell-based
Clostridium perfringens = experiment: microbe, parasite or virus in culture
Bacillus natto = experiment: antimicrobial activity, agar streak method (MIC), aerobic gram-positive; conditions: Bacillus subtilis
Proteus vulgaris = experiment: antimicrobial activity, agar streak method (MIC), aerobic gram-negative
Escherichia coli = experiment: as above
[1] = tested on: Fusobacterium necrophorum; experiment: antimicrobial activity, agar streak method (MIC), anaerobic
Staphylococcus aureus = experiment: antimicrobial activity, agar streak method (MIC), aerobic gram-positive
Bacterioides fragilis = experiment: antimicrobial activity, agar streak method (MIC), anaerobic
Pseudomonas aeruginosa = experiment: antimicrobial activity, agar streak method (MIC), aerobic gram-negative
Mycoplasma homilis = experiment: antimicrobial activity, agar streak method (MIC)
Streptococcus faecalis = experiment: antimicrobial activity, agar streak method (MIC), aerobic gram-positive; conditions: Enterococcus faecalis
Micrococcus luteus = experiment: as above
Acholeplasma laidlawii = experiment: antimicrobial activity, agar streak method (MIC), aerobic gram-negative
Hemophilus influenzae = experiment: as above; conditions: Haemophilus influenzae
Streptococcus pneumoniae = experiment: antimicrobial activity, agar streak method (MIC), aerobic gram-positive
Neisseria gonorrhoeae = experiment: antimicrobial activity, agar streak method (MIC), aerobic gram-negative
Streptococcus pyogenes = experiment: antimicrobial activity, agar streak method (MIC), aerobic gram-positive
Salmonella typhi = experiment: antimicrobial activity, agar streak method (MIC), aerobic gram-negative; conditions: Salmonella enterica
Bacillus subtilis = experiment: antimicrobial activity, agar streak method (MIC), aerobic gram-positive
[2] = tested on: Corynebacterium diphtheriae; experiment: as above
Shigella sonnei = experiment: antimicrobial activity, agar streak method (MIC), aerobic gram-negative
Excerpt: The antimicrobial activities of 8,9-difluoroerythromycin 6,9-epoxide (Example 1), 8,9-difluoroerythromycin 6,9-epoxide 11,12-carbonate (Example 2) and 8,9-difluoroerythromycin 6,9-epoxide 11,12-sulfite (Example 4) are examined by an agar streak method and expressed in terms of minimal inhibitory concentrations (MIC, μg/ml) against the following bacteria.

Structure (SMILES) | MIC (Clostridium perfringens) | MIC (Bacillus natto) | MIC (Proteus vulgaris) | MIC (Escherichia coli) | MIC [1] | MIC (Staphylococcus aureus) | MIC (Bacterioides fragilis) | MIC (Pseudomonas aeruginosa) | MIC (Mycoplasma homilis) | MIC (Streptococcus faecalis) | MIC (Micrococcus luteus) | MIC (Acholeplasma laidlawii) | MIC (Hemophilus influenzae) | MIC (Streptococcus pneumoniae) | MIC (Neisseria gonorrhoeae) | MIC (Streptococcus pyogenes) | MIC (Salmonella typhi) | MIC (Bacillus subtilis) | MIC [2] | MIC (Shigella sonnei)
CC[C@H]1OC(=O)[C@H](C)[C@@H](O[C@H]2C[C@@](C)(OC)[C@@H](O)[C@H](C)O2)[C@H](C)[C@@H](O[C@@H]2O[C@H](C)C[C@H](N(C)C)[C@H]2O)[C@@]2(C)CC(C)(F)C(F)(O2)[C@H](C)[C@@H](O)[C@]1(C)O (stereo partly drawn) [Example 1, 8,9-difluoroerythromycin A 6,9-epoxide] | 0.83 µg/mL (≈ 1.1 µM) | 0.078 µg/mL (≈ 0.103 µM) | 26 µg/mL (≈ 34.5 µM) | 31.2 µg/mL (≈ 41.5 µM) | 2 µg/mL (≈ 2.65 µM) | 0.156 µg/mL (≈ 0.207 µM) | 0.21 µg/mL (≈ 0.279 µM) | 26 µg/mL (≈ 34.5 µM) | 25 µg/mL (≈ 33.2 µM) | 1.25 µg/mL (≈ 1.66 µM) | 0.006 µg/mL (≈ 0.00796 µM) | 0.1 µg/mL (≈ 0.133 µM) | 3.5 µg/mL (≈ 4.64 µM) | 0.025 µg/mL (≈ 0.0332 µM) | 0.052 µg/mL (≈ 0.069 µM) | 0.011 µg/mL (≈ 0.0146 µM) | 13.2 µg/mL (≈ 17.5 µM) | 0.049 µg/mL (≈ 0.065 µM) | 0.011 µg/mL (≈ 0.0146 µM) | 25 µg/mL (≈ 33.2 µM)
CC[C@H]1OC(=O)[C@H](C)[C@@H](O[C@H]2C[C@@](C)(OC)[C@@H](O)[C@H](C)O2)[C@H](C)[C@@H](O[C@@H]2O[C@H](C)C[C@H](N(C)C)[C@H]2O)[C@@]2(C)CC(C)(F)C(F)(O2)[C@H](C)[C@H]2OC(=O)O[C@@]21C (stereo partly drawn) [Example 2, 8,9-difluoroerythromycin A 6,9-epoxide 11,12-carbonate] | 3.3 µg/mL (≈ 4.23 µM) | 0.078 µg/mL (≈ 0.1 µM) | 26 µg/mL (≈ 33.3 µM) | 7.8 µg/mL (≈ 10 µM) | 8 µg/mL (≈ 10.3 µM) | 0.156 µg/mL (≈ 0.2 µM) | 0.84 µg/mL (≈ 1.08 µM) | 26 µg/mL (≈ 33.3 µM) | 25 µg/mL (≈ 32.1 µM) | 0.625 µg/mL (≈ 0.801 µM) | 0.02 µg/mL (≈ 0.0256 µM) | 0.2 µg/mL (≈ 0.256 µM) | 7 µg/mL (≈ 8.98 µM) | 0.013 µg/mL (≈ 0.0167 µM) | 0.052 µg/mL (≈ 0.0667 µM) | 0.011 µg/mL (≈ 0.0141 µM) | 13.2 µg/mL (≈ 16.9 µM) | 0.049 µg/mL (≈ 0.0628 µM) | 0.022 µg/mL (≈ 0.0282 µM) | 12.5 µg/mL (≈ 16 µM)
CC[C@H]1OC(=O)[C@H](C)[C@@H](O[C@H]2C[C@@](C)(OC)[C@@H](O)[C@H](C)O2)[C@H](C)[C@@H](O[C@@H]2O[C@H](C)C[C@H](N(C)C)[C@H]2O)[C@@]2(C)CC(C)(F)C(F)(O2)[C@H](C)[C@H]2OS(=O)O[C@@]21C (stereo partly drawn) [Example 4, 8,9-difluoroerythromycin A 6,9-epoxide 11,12-sulfite] | 0.3 µg/mL (≈ 0.375 µM) | 0.078 µg/mL (≈ 0.0975 µM) | 26 µg/mL (≈ 32.5 µM) | 7.8 µg/mL (≈ 9.75 µM) | 8 µg/mL (≈ 10 µM) | 0.156 µg/mL (≈ 0.195 µM) | 0.84 µg/mL (≈ 1.05 µM) | 26 µg/mL (≈ 32.5 µM) | 25 µg/mL (≈ 31.3 µM) | 0.625 µg/mL (≈ 0.781 µM) | 0.02 µg/mL (≈ 0.025 µM) | 0.2 µg/mL (≈ 0.25 µM) | 7 µg/mL (≈ 8.75 µM) | 0.013 µg/mL (≈ 0.0163 µM) | 0.052 µg/mL (≈ 0.065 µM) | 0.011 µg/mL (≈ 0.0138 µM) | 13.2 µg/mL (≈ 16.5 µM) | 0.049 µg/mL (≈ 0.0613 µM) | 0.022 µg/mL (≈ 0.0275 µM) | 12.5 µg/mL (≈ 15.6 µM)
